Patent US7863298B2, “Bridged ring structures as pharmaceutical agents” (Exelixis, Inc., priority 2003, dated 2011)

Target: T1, VDR (Homo sapiens, UniProt P11473)
T1 construct: expressed in transfected cells; host or cells: CV-1 (African green monkey kidney cells), transient transfection
T1 sequence (P11473 92-425): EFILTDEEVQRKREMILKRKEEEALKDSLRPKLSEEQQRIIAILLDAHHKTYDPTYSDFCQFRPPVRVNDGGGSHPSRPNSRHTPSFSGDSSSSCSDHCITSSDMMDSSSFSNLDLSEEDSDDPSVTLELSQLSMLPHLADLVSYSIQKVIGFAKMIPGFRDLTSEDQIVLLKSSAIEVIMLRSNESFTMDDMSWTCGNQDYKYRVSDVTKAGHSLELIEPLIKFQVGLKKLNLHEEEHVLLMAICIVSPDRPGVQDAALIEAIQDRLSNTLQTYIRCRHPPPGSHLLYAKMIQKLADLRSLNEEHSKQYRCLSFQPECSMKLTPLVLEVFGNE
T1 sequence (Q15788 381-891 partner limits assumed): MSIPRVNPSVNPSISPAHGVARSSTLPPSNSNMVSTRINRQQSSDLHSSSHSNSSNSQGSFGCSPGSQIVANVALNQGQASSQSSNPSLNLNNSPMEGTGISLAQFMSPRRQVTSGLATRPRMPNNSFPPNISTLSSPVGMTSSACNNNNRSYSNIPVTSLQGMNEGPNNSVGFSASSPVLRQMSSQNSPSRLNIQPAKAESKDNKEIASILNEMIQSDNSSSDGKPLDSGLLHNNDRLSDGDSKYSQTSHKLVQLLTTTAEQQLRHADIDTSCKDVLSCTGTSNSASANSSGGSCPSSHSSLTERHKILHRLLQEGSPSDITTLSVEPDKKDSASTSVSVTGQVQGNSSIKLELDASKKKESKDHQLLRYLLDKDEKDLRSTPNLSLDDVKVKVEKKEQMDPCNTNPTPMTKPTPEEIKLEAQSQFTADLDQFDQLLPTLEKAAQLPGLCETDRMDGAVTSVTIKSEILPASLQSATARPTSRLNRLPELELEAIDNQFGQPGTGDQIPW
Assay: modified mammalian two-hybrid assay (VDR / SRC-1 interaction, luciferase reporter)
Type: cell-based
Settings: CV-1 cells, exemplary compounds, read-out: agonist activity EC50
Protocol: Compound activity was determined using a modified mammalian two-hybrid assay, using the interaction of VDR to the co-factor SRC-1 to monitor receptor activation.
Following incubation with transfection reagents for 5 hours at 37° C., transfected cells were trypsinized, centrifuged, resuspended in media and added to the assay plates, (45 μl, 5000 cells per well). The assay plates containing both compounds and screening cells were incubated for approximately 20 hours at 37° C. in a tissue culture incubator.
After incubation of the transfected cells with compounds, media was aspirated and lysis buffer (1% Triton X 100, 10% Glycerol, 5 mM Dithiothreitol,1 mM EGTA, 25 mM Tricine pH 7.8) added.

| SMILES | EC50 [µM] |
| --- | --- |
| CC(=O)N1CCC(c2ccc(OCC(=O)C(C)(C)C)c(C)c2)(c2ccc(OCC(=O)C(C)(C)C)c(C)c2)CC1 [1-(4-{1-Acetyl-4-[4-(3,3-dimethyl-2-oxo-butoxy)-3-methyl-phenyl]-piperidin-4-yl}-2-methyl-phenoxy)-3,3-dimethyl-butan-2-one] | < 10 |
| Cc1cc(C(c2ccccc2)(c2ccc(OCC(O)C(C)(C)C)c(C)c2)C(F)(F)F)ccc1OCC(O)CO (stereo not drawn) [3-(2-Methyl-4-{2,2,2-trifluoro-1-[4-(2-hydroxy-3,3-dimethyl-butoxy)-3-methyl-phenyl]-1-phenyl-ethyl}-phenoxy)-propane-1,2-diol] | < 10 |
| Cc1cc(C(c2ccccc2)(c2ccc(OCC(O)C(C)(C)C)c(C)c2)C(F)(F)C(F)(F)F)ccc1OCC(O)CO (stereo not drawn) [3-(2-Methyl-4-{2,2,3,3,3-pentafluoro-1-[4-(2-hydroxy-3,3-dimethyl-butoxy)-3-methyl-phenyl]-1-phenyl-propyl}-phenoxy)-propane-1,2-diol] | < 10 |
| CCC(CC)(c1ccc(CCC(O)C(C)(C)C)cc1)c1ccc(OC[C@@H](O)CO)c(C)c1 (stereo partly drawn) [3-(4-{1-Ethyl-1-[4-(3-hydroxy-4,4-dimethylpentyl)-phenyl]-propyl}-2-methylphenoxy)-propane-1,2(S)-diol] | < 10 |
| CCC(O)(CC)CCc1ccc(C(CC)(CC)c2ccc(OC[C@@H](O)CO)c(C)c2)cc1C [3-(4-{1-ethyl-1-[4-(3-ethyl-3-hydroxypentyl)-3-methylphenyl]-propyl}-2-methyl-phenoxy)-propane-1,2(S)-diol] | < 10 |
| CCC(CC)(c1ccc(CCC(C)(C)O)c(C)c1)c1ccc(OC[C@@H](O)CO)c(C)c1 [3-(4-{1-ethyl-1-[4-(3-hydroxy-3-methylbutyl)-3-methylphenyl]-propyl}-2-methylphenoxy)-propane 1,2(S)-diol] | < 10 |
| CCC(CC)(c1ccc(/C=C\C(O)C(C)(C)C)c(C)c1)c1ccc(OC[C@@H](O)CO)c(C)c1 (stereo partly drawn) [(Z)-3-(4-{1-ethyl-1-[4-(3-hydroxy-4,4-dimethylpent-1-enyl)-3-methylphenyl]-propyl}-2-methylphenoxy)-propane-1,2(S)-diol] | < 10 |

System: 24-hydroxylase
Assay: kidney 24-hydroxylase gene expression in athymic nude mice (RT-PCR)
Type: in vivo
Settings: four doses, oral gavage every other day for 14 days; FIG. 2
Protocol: A (three day) effective dose study was conducted on normal BALB/c mice in order to select a compound for the athymic nude mice study described below. Two-week old male Balb/c mice (Harlan) were weighed and sorted into groups of six according to Day-1 weight. Animals were given a standard diet and housed under normal lighting conditions. Compounds were administered in sesame oil vehicle with 4% ethanol. Ethanol was removed by evaporation by sparging with nitrogen prior to dosing orally by gavage via a 1 cc syringe with a 20 G disposable feeding needle (0.1 mL dose volume). Dosing was daily for three days, with animal weights measured on Days 0, 1 and 3. […] Animal weights were monitored on Day 3, 7, 10 and 14. […] The RT reactions were performed in a DNA Engine thermal cycler (PTC-200, MJ Research) (50° C. 30 minutes; 72° C. 5 minutes) Real-Time Quantitative PCR was performed in a 384 well assay plate using the Prism 7900HT (ABI) using the entire product from the reverse transcription reaction above (5 uL). […] Results were analyzed using the data analysis and software packet (SDS) provided with the instrumentation. FIG. 1 compares the effect of 1α,25-dihydroxyvitamin D3, against four different doses of one selected compound of the current invention, Compound B on plasma calcium levels in athymic nude mice at Day 14 measured 3 hours after final dose. […]

| SMILES | RNA expression of kidney 24-hydroxylase (relative to cyclophilin) |
| --- | --- |
| CCC(CC)(c1ccc(C#CC(O)C(C)(C)C)c(C)c1)c1ccc(OC[C@@H](O)CO)c(C)c1 (single isomer, unassigned) [compound B] | dose responsive increase |

System: not listed separately
Assay: plasma calcium determination in athymic nude mice
Type: in vivo
Settings: four doses, oral gavage every other day for 14 days, Day 14; FIG. 1
Protocol: A (three day) effective dose study was conducted on normal BALB/c mice in order to select a compound for the athymic nude mice study described below. Two-week old male Balb/c mice (Harlan) were weighed and sorted into groups of six according to Day-1 weight. Animals were given a standard diet and housed under normal lighting conditions. Compounds were administered in sesame oil vehicle with 4% ethanol. Ethanol was removed by evaporation by sparging with nitrogen prior to dosing orally by gavage via a 1 cc syringe with a 20 G disposable feeding needle (0.1 mL dose volume). Dosing was daily for three days, with animal weights measured on Days 0, 1 and 3. […] Animal weights were monitored on Day 3, 7, 10 and 14. […]
Calcium determination was carried out in a micronized plate format with heparinized plasma samples utilizing a colorimetric assay (Sigma 588-3). […] When present in an acidic medium, the calcium Arsenazo complex forms a purple color that was determined using a standard plate reader at […] against a standard curve.
FIG. 1 compares the effect of 1α,25-dihydroxyvitamin D3, against four different doses of one selected compound of the current invention, Compound B on plasma calcium levels in athymic nude mice at Day 14 measured 3 hours after final dose. Dosage is measured in μg/kg and plasma calcium levels are in mg/dl. […]

| SMILES | plasma calcium concentration |
| --- | --- |
| CCC(CC)(c1ccc(C#CC(O)C(C)(C)C)c(C)c1)c1ccc(OC[C@@H](O)CO)c(C)c1 (single isomer, unassigned) [compound B] | without elevating plasma calcium concentration |
